Measurements from patent US3994882A, “Nitrofuran derivatives, process for the preparation thereof and compositions containing same as active ingredient” (Kabushiki Kaisha Ueno Seiyaku Oyo Kenkyujo, priority 1974, dated 1976).
Values after ≈ are worked out from the molar mass of the structure shown.

Columns and labels:
[1] = tested on: Diplococcus pneumoniae DP-1; assay: Minimum growth inhibiting concentration (Table 1); format: cell-based; conditions: Streptococcus pneumoniae, DP1, TSBI, pH 7.2, 37° C., 48 hours
Method: (§1) For information, the minimum growth inhibiting concentration is a value
(§2) concerning microorganisms cultivated in TSBI the pH of which was adjusted
(§3) to 7.2, each bacteria being incubated at 37° C. for 48 hours.

Proteus vulgaris HX-19 = assay: Minimum growth inhibiting concentration (Table 1); format: cell-based; conditions: HX19, TSBI, pH 7.2, 37° C., 48 hours
Method: as §1, §2, §3

[2] = tested on: Salmonella enteritidis 1891; assay: Minimum growth inhibiting concentration (Table 1); format: cell-based; conditions: Salmonella enterica, TSBI, pH 7.2, 37° C., 48 hours
Method: as §1, §2, §3

[3] = tested on: Salmonella pullorum chuyu 114; assay: Minimum growth inhibiting concentration (Table 1); format: cell-based; conditions: Salmonella enterica, TSBI, pH 7.2, 37° C., 48 hours
Method: as §1, §2, §3

[4] = tested on: Staphylococcus aureus 209P; assay: Minimum growth inhibiting concentration (Table 1); format: cell-based; conditions: TSBI, pH 7.2, 37° C., 48 hours
Method: as §1, §2, §3

[5] = tested on: Bordetella bronchiseptica; assay: Minimum growth inhibiting concentration, microorganisms that infect domestic animals (Table 2); format: cell-based; conditions: 4 strains, Heart infusion Agar, 48 hours
Method: (§4) The minimum growth inhibiting concentrations were measured under identical conditions as in the case of Table 1, except that culture media indicated above were used and, in the case of that asterisked, the culture was carried out for 5 days, while the others were cultivated for 48 hours.

[6] = tested on: Erysiperothrix rhusiopatiae Agata; assay: as above; format: cell-based; conditions: TSB-Agar 10% rabbit blood added, 48 hours
Method: as §4

Escherichia coli = assay: as above; format: cell-based; conditions: 36 strains, TSB-Agar, 48 hours
Method: as §4

Hemophilus galinalum = assay: as above; format: cell-based; conditions: 2 strains, TSB-Agar 10% rabbit blood added, 48 hours
Method: as §4

Mycolasma galli-septicum = assay: as above; format: cell-based; conditions: 120 h, 6 strains, Hofstad, 5 days
Method: as §4

[7] = tested on: Pasteurella multocida Kobe-5; assay: as above; format: cell-based; conditions: KOBE5, TSB-Agar 10% rabbit blood added, 48 hours
Method: as §4

Salmonella purollum = assay: as above; format: cell-based; conditions: 42 strains, TSB-Agar, 48 hours
Method: as §4

Staphylococcus aureus = assay: as above; format: cell-based; conditions: 15 strains, TSB-agar, 48 hours
Method: as §4

[8] = tested on: Staphlococcus aureus Kawanabe II; assay: Curative effects on Staphlomycosis of fowl (Table 7); format: in vivo; conditions: two weeks, chicks died / chicks tested
Method: A culture liquid obtained by cultivation of Staphlococcus aureus Kawanabe II for 20 hours at 37° C. in a heart infusion culture medium was injected intravenously into 3-week-old chicks at the rate of 0.2 ml per chick. Nitrofuran derivatives mixed in amounts indicated below in the feeds were then fed these chicks for two weeks. In the table the expression, "death rate" has the following meaning. For instance, the value 3/9 denotes that three out of the nine chicks submitted to the test died.

| Structure (SMILES) | MIC [1] [µg/mL] | MIC (Proteus vulgaris HX-19) [µg/mL] | MIC [2] [µg/mL] | MIC [3] [µg/mL] | MIC [4] [µg/mL] | MIC [5] [µg/mL] | MIC [6] [µg/mL] | MIC (Escherichia coli) [µg/mL] | MIC (Hemophilus galinalum) [µg/mL] | MIC (Mycolasma galli-septicum) [µg/mL] | MIC [7] [µg/mL] | MIC (Salmonella purollum) [µg/mL] | MIC (Staphylococcus aureus) [µg/mL] | Death rate ([8]; 50 ppm in feed) | Death rate ([8]; 100 ppm in feed) | Death rate ([8]; 200 ppm in feed) | Death rate ([8]; 400 ppm in feed) | Death rate ([8]; 800 ppm in feed) |
| --- | --- | --- | --- | --- | --- | --- | --- | --- | --- | --- | --- | --- | --- | --- | --- | --- | --- | --- |
| O=C(NCCO)c1ccc(C=Cc2ccc([N+](=O)[O-])o2)cc1 [Example 1, 2-Para-[2'-(5"-nitro-2"-furyl)-vinyl]-benzoylaminoethanol] | 0.78 (≈ 2.58 µM) | 3.13 (≈ 10.4 µM) | 1.56 (≈ 5.16 µM) | 3.13 (≈ 10.4 µM) | 0.78 (≈ 2.58 µM) | 25 (≈ 82.7 µM) | 0.07 (≈ 0.232 µM) | 0.5 to 25 (≈ 1.65 to 82.7 µM) | 0.04 to 1.5 (≈ 0.132 to 4.96 µM) | 0.1 (≈ 0.331 µM) | 0.15 (≈ 0.496 µM) | 1.6 to 12.5 (≈ 5.29 to 41.4 µM) | 0.2 to 25 (≈ 0.662 to 82.7 µM) | 3/9 | 2/9 | 2/9 | 2/9 | 1/9 |
| O=C(NCC(O)CO)c1ccc(C=Cc2ccc([N+](=O)[O-])o2)cc1 (stereo not drawn) [Example 9, 3-Para-[2'-(5"-nitro-2"-furyl)-vinyl]-benzoylamino-1,2-propanediol] | < 0.19 | 6.25 (≈ 18.8 µM) | 1.56 (≈ 4.69 µM) | 6.25 (≈ 18.8 µM) | 0.78 (≈ 2.35 µM) | 25 (≈ 75.2 µM) | 0.15 (≈ 0.451 µM) | 0.5 to 12.5 (≈ 1.5 to 37.6 µM) | 0.1 to 1.5 (≈ 0.301 to 4.51 µM) | 0.2 (≈ 0.602 µM) | 0.08 (≈ 0.241 µM) | 1.6 to 25 (≈ 4.81 to 75.2 µM) | 0.2 to 25 (≈ 0.602 to 75.2 µM) | 3/9 | 2/9 | 2/9 | 2/9 | 2/9 |
